Assay results taken from US20260209233A1, “ANNULATED PYRIDAZINE DERIVATIVE” (Tenvie Therapeutics, Inc., priority 2022, published 2026).
Counter-ions that a name gives are not always drawn.

Molecular target: T1, NLRP3 inflammasome (Homo sapiens, UniProt Q96P20)
T1 construct: endogenous in cells; host or cells: THP-1 cells, PMA-differentiated and stimulated with LPS and ATP
Assay: THP-1 IL-1β production inhibition test
Type: cell-based
Details: PMA-treated THP-1 cells, LPS 50 ng/ml + ATP 5 mM, 2 hours, IL-1β in supernatant by ELISA
Protocol: Test Example 1: THP-1 IL-1β Production Inhibition Test
PMA (phorbol myristate acetate, SIGMA, P1585) was added to THP-1 cells in an amount of 50 ng/mL to culture the cells for 2 days at 37° C. The culture medium was replaced with a serum-free RPMI-1640 medium, and a compound with a known concentration was added thereto to culture the cells at 37° C. for 15 minutes. LPS (Lipopolysaccharide, SIMGA, L2880) and ATP (Adenosine triphosphate, SIGMA, A2383) were added so that final concentrations become 50 ng/ml and 5 mM, respectively, followed by culturing at 37° C. for 2 hours. The supernatants were collected to measure the concentrations of IL-1β by ELISA (DuoSet ELISA human IL-1β, R&D Systems, DY201). The IL-1β concentrations were plotted against log concentrations of test compounds, and an IC50 value was calculated by sigmoid Emax model nonlinear regression analysis.
Example compounds were confirmed to inhibit NLRP3 inflammasome activation and IL-1β production.

T1 sequence (Q96P20 whole entry): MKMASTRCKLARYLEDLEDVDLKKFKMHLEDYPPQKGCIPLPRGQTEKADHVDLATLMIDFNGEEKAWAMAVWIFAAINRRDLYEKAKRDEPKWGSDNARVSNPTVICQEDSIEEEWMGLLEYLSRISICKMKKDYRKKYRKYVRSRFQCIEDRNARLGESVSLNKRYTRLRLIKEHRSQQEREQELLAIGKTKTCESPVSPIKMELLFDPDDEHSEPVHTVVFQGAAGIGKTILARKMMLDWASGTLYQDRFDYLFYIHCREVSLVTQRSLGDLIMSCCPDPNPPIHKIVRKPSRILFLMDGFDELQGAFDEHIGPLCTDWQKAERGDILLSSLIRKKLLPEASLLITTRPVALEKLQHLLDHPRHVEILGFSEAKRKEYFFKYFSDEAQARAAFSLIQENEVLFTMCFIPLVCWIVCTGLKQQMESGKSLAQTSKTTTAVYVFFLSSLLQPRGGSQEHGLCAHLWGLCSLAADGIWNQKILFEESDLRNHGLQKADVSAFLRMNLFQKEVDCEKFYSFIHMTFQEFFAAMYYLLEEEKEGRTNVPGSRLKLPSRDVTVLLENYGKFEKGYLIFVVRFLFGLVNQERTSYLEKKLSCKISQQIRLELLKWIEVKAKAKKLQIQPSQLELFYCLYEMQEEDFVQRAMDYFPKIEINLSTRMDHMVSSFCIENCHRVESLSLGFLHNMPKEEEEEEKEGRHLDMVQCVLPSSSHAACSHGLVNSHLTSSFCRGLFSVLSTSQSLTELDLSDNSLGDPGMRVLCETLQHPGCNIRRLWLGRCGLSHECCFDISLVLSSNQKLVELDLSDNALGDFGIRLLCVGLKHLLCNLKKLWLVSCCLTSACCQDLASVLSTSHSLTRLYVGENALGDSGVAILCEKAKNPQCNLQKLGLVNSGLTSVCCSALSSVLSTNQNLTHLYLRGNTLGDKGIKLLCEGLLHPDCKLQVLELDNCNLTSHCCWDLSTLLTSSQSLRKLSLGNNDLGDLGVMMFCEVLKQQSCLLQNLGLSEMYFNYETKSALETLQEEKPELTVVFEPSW

Row | SMILES | IC50 [µM]
1 | CC(=O)N1CCC[C@@H](N2CCCc3c2nnc(-c2ccc(C(F)(F)F)cc2O)c3C)C1 [Example 8] | 0.026
2 | Cc1c(-c2ccc(C(F)(F)F)cc2O)nnc2c1CCCN2[C@@H]1CCCN(C2COC2)C1 [Example 9] | 0.035
3 | Cc1c(-c2ccc(OC(F)(F)F)cc2O)nnc2c1CCCN2[C@@H]1CCCN(C)C1 [Example 10] | 0.049
4 | Cc1ccc(-c2nnc3c(c2C)CCCN3[C@@H]2CCCN(C)C2)c(O)c1 [Example 11] | 0.046
5 | Cc1c(-c2ccc(C(F)(F)F)cc2O)nnc2c1CCCCN2[C@@H]1CCCC[C@H]1O [Example 12] | 0.044
6 | Cc1c(-c2ccc(C(F)(F)F)cc2O)nnc2c1CCCN2[C@@H]1CCCNC1=O [Example 13] | 0.03
7 | Cc1c(-c2ccc(C(F)(F)F)cc2O)nnc2c1CCCN2[C@@H]1CCCN(C)C1=O [Example 14] | 0.022
8 | Cc1c(-c2ccc(C(F)(F)F)cc2O)nnc2c1CCCN2[C@H]1CNC(=O)C1 [Example 15] | 0.78
9 | Cc1c(-c2ccc(C(F)(F)F)cc2O)nnc2c1CCCN2[C@@H]1CCN(C)C[C@H]1O [Example 16] | 1.9
10 | CN[C@@H]1CCCC[C@H]1N1CCCc2c1nnc(-c1ccc(C(F)(F)F)cc1O)c2C [Example 17] | 0.41
11 | Cc1c(-c2ccc(Cl)cc2O)nnc2c1COCCN2[C@@H]1CCCC[C@H]1O [Example 19] | 0.03
12 | Cc1c(-c2ccc(C(F)(F)F)cc2O)nnc2c1CCN2C[C@@H](C)O [Example 20] | 0.2
13 | Cc1c(-c2ccc(C(F)(F)F)cc2O)nnc2c1CCCN2[C@@H]1CC[C@H](C#N)C1 [Example 22] | 0.12
14 | Cc1c(-c2ccc(C(F)(F)F)cc2O)nnc2c1CN(Cc1ccccc1)CCN2[C@@H]1CCCC[C@H]1O [Example 23] | 0.25
15 | CC(=O)NCCCCN1CCOCc2c1nnc(-c1ccc(C(F)(F)F)cc1O)c2C [Example 25] | 0.04
16 | Cc1c(-c2ccc(C(F)(F)F)cc2O)nnc2c1COCCN2[C@@H]1CCCN(CC(F)F)C1 [Example 26] | 0.014
17 | Cc1c(-c2ccc(C(F)(F)F)cc2O)nnc2c1CCCN2[C@@H]1CCCN(CCO)C1 [Example 27, 2-{8-[(3R)-1-(2-hydroxyethyl)piperidin-3-yl]-4-methyl-5,6,7,8-tetrahydropyrid[2,3-c]pyridazin-3-yl}-5-(trifluoromethyl)phenol dihydrochloride] | 0.042
18 | COC(=O)N1CCC[C@@H](N2CCCc3c2nnc(-c2ccc(C(F)(F)F)cc2O)c3C)C1 [Example 32, (3R)-3-{3-[2-hydroxy-4-(trifluoromethyl)phenyl]-4-methyl-6,7-dihydropyrido[2,3-c]pyridazin-8(5H)-yl}piperidine-1-methyl carboxylate] | 0.096
19 | Cc1c(-c2ccc(C(F)(F)F)cc2O)nnc2c1CCCN2[C@@H]1CCCN(C(N)=O)C1 [Example 33, (3R)-3-{3-[2-hydroxy-4-(trifluoromethyl)phenyl]-4-methyl-6,7-dihydropyrido[2,3-c]pyridazin-8(5H)-yl}piperidin-1-carboxyamide] | 0.055
20 | Cc1c(-c2ccc(C(F)(F)F)cc2O)nnc2c1CCCN2[C@@H]1CCCN(S(C)(=O)=O)C1 [Example 34, 2-{8-[(3R)-1-(methansulfonyl)piperidin-3-yl]-4-methyl-5,6,7,8-tetrahydropyrido[2,3-c]pyridazin-3-yl}-5-(trifluoromethyl)phenol] | 0.037
21 | Cc1c(-c2ccc(C(F)(F)F)cc2O)nnc2c1CCN2[C@H]1C[C@@](C)(O)C1 [Example 35, 2-{7-[(1s,3s)-3-hydroxy-3-methylcyclobutyl]-4-methyl-6,7-dihydro-5H-pyrrolo[2,3-c]pyridazin-3-yl}-5-(trifluoromethyl)phenol] | 0.044

The remaining molecules from weak to strong by IC50, led by results:

Row | IC50 [µM] | SMILES
22 | 0.016 | Cc1c(-c2ccc(C(F)(F)F)cc2O)nnc2c1CCCN2[C@@H]1CCCC[C@H]1O [Example 1, 2-{8-[(1R,2R)-2-hydroxycyclohexyl]-4-methyl-5,6,7,8-tetrahydropyrido[2,3-c]pyridazin-3-yl}-5-(trifluoromethyl)phenol]
23 | 0.016 | Cc1c(-c2ccc(C(F)(F)F)cc2O)nnc2c1CN(C)CCN2[C@@H]1CCCC[C@H]1O [Example 7, 2-{9-[(1R,2R)-2-hydroxycyclohexyl]-4,6-dimethyl-6,7,8,9-tetrahydro-5H-pyridazino[3,4-e][1,4]diazepin-3-yl}-5-(trifluoromethyl)phenol]
24 | 0.016 | COC1CCN([C@@H]2CCCC[C@H]2O)c2nnc(-c3ccc(C(F)(F)F)cc3O)c(C)c21 (stereo partly shown) [Example 21]
25 | 0.015 | Cc1cc(C(F)(F)F)cc(O)c1-c1cc2c(nn1)N([C@@H]1CCCC[C@H]1O)CCC2 [Example 18]
26 | 0.014 | COc1ccc(-c2nnc3c(c2C)COCCN3[C@@H]2CCCN(C)C2)c(O)c1 [Example 6, 5-methoxy-2-{4-methyl-9-[(3R)-1 methylpiperidin-3-yl]-5,7,8,9-tetrahydropyridazino[3,4-e][1,4]oxaazepin-3-yl}phenol]
27 | 0.013 | Cc1c(-c2ccc(C(F)(F)F)cc2O)nnc2c1CCN2[C@H]1CCNC1=O [Example 5, (3S)-3-{3-[2-hydroxy-4-(trifluoromethyl)phenyl]-4-methyl-5,6-dihydro-7H-pyrrolo[2,3-c]pyridazin-7-yl}pyrrolidin-2-one]
28 | 0.013 | Cc1c(-c2ccc(OC(F)F)cc2O)nnc2c1CCCN2[C@@H]1CCOC[C@H]1O [Example 29, (3S,4R)-4-{3-[4-(difluoromethoxy)-2-hydroxyphenyl]-4-methyl-6,7-dihydropyrido[2,3-c]pyridazin-8(5H)-yl}oxan-3-ol]
29 | 0.012 | Cc1c(-c2ccc(C(F)(F)F)cc2O)nnc2c1CCCN2[C@@H]1CCCN(C2CC2)C1 [Example 31, 2-{8-[(3R)-1-cyclopropylpiperidin-3-yl]-4-methyl-5,6,7,8-tetrahydropyrido[2,3-c]pyridazin-3-yl}-5-(trifluoromethyl)phenol]
30 | 0.0095 | Cc1c(-c2ccc(OC(F)F)cc2O)nnc2c1COCCN2[C@@H]1CCCC[C@H]1O [Example 30, 5-(difluoromethoxy)-2-{9-[(1R,2R)-2-hydroxycyclohexyl]-4-methyl-5,7,8,9-tetrahydropyridazino[3,4-e][1,4]oxaazepin-3-yl}phenol]
31 | 0.0081 | Cc1c(-c2ccc(OC(F)F)cc2O)nnc2c1CCCN2[C@@H]1CCCC[C@H]1O [Example 28, 5-(difluoromethoxy)-2-{8-[(1R,2R)-2-hydroxycyclohexyl]-4-methyl-5,6,7,8-tetrahydropyrido[2,3-c]pyridazin-3-yl}phenol]
32 | 0.0068 | Cc1c(-c2ccc(C(F)(F)F)cc2O)nnc2c1COCCN2[C@@H]1CCCC[C@H]1O [Example 4, 2-{9-[(1R,2R)-2-hydroxycyclohexyl]-4-methyl-5,7,8,9-tetrahydropyridazino[3,4-e][1,4]oxaazepin-3-yl}-5-(trifluoromethyl)phenol]
33 | 0.0063 | Cc1c(-c2ccc(C(F)(F)F)cc2O)nnc2c1CCCN2[C@@H]1CCCN(C)C1 [Example 2, 2-{4-methyl-8-[(3R)-1-methylpiperidin-3-yl]-5,6,7,8-tetrahydropyrido[2,3-c]pyridazin-3-yl}-5-(trifluoromethyl)phenol]
34 | 0.003 | CCN1CCC[C@@H](N2CCCc3c2nnc(-c2ccc(C(F)(F)F)cc2O)c3C)C1 [Example 3, 2-{8-[(3R)-1-ethylpiperidin-3-yl]-4-methyl-5,6,7,8-tetrahydropyrid[2,3-c]pyridazin-3-yl}-5-(trifluoromethyl)phenol]
